Laboratory results as given in PubChem BioAssay AID1963865 (Molecular Pharmacology Branch, DTP, NCI, 2024).

Tested on: KRAS PDC multicell spheroid viability
Test: Anticancer human tumor 825966-067-R-J1-PDC patient-derived colon carcinoma cell line growth inhibition [KRAS2]
Details: for IC50: curve of first compound; for viability, T/C: stronger effect = lower value
Procedure, shortened: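 Combination screen of spheroid viability in tumor-cell co-cultures with endothelial (HUVEC) and mesenchymal stem cell stroma. Each agent was tested in half-log dilutions, topping at clinical Cmax or at 10 microM without a known Cmax.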

[1] = second compound 0.1 µM, first compound 0.0316 µM
[2] = second compound 0.1 µM, first compound 0.1 µM
[3] = second compound 0.1 µM, first compound 0.316 µM
[4] = second compound 0.1 µM, first compound 1 µM
[5] = second compound 0.316 µM, first compound 0.0316 µM
[6] = second compound 0.316 µM, first compound 0.1 µM
[7] = second compound 0.316 µM, first compound 0.316 µM
[8] = second compound 0.316 µM, first compound 1 µM
[9] = second compound 1 µM, first compound 0.0316 µM
[10] = second compound 1 µM, first compound 0.1 µM
[11] = second compound 1 µM, first compound 0.316 µM
[12] = second compound 1 µM, first compound 1 µM
[13] = second compound 3.16 µM, first compound 0.0316 µM
[14] = second compound 3.16 µM, first compound 0.1 µM
[15] = second compound 3.16 µM, first compound 0.316 µM
[16] = second compound 3.16 µM, first compound 1 µM
[17] = second compound 10 µM, first compound 0.0316 µM
[18] = second compound 10 µM, first compound 0.1 µM
[19] = second compound 10 µM, first compound 0.316 µM
[20] = second compound 10 µM, first compound 1 µM
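Note: spheroids exposed to compounds for 7 days.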
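Throughout, for viability, T/C: 100% = DMSO vehicle control viability.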

| SMILES | IC50 (second compound 0.1 µM) [nM] | IC50 (second compound 0.316 µM) [nM] | IC50 (second compound 1 µM) [nM] | IC50 (second compound 3.16 µM) [nM] | IC50 (second compound 10 µM) [nM] | viability, T/C [1] [%] | viability, T/C [2] [%] | viability, T/C [3] [%] | viability, T/C [4] [%] | viability, T/C [5] [%] | viability, T/C [6] [%] | viability, T/C [7] [%] | viability, T/C [8] [%] | viability, T/C [9] [%] | viability, T/C [10] [%] | viability, T/C [11] [%] | viability, T/C [12] [%] | viability, T/C [13] [%] | viability, T/C [14] [%] | viability, T/C [15] [%] | other results |
| --- | --- | --- | --- | --- | --- | --- | --- | --- | --- | --- | --- | --- | --- | --- | --- | --- | --- | --- | --- | --- | --- |
| CCN1CCN(Cc2ccc(Nc3ncc(F)c(-c4cc(F)c5nc(C)n(C(C)C)c5c4)n3)nc2)CC1 + COc1cc2nc(C)nc(NC(C)c3cc(N)cc(C(F)(F)F)c3)c2cc1OC1CCOC1 | > 1000 | > 1000 | > 1000 | > 1000 | 31.9 | 121 | 170 | 129 | 183 | 111 | 132 | 172 | 161 | 104 | 152 | 179 | 92.7 | 161 | 158 | 171 | viability, T/C (second compound 0.1 µM, first compound 0.00316 µM): 99.6%; viability, T/C (second compound 0.1 µM, first compound 0.01 µM): 111%; viability, T/C (second compound 0.316 µM, first compound 0.00316 µM): 99.3%; viability, T/C (second compound 0.316 µM, first compound 0.01 µM): 109%; viability, T/C (second compound 1 µM, first compound 0.00316 µM): 103%; viability, T/C (second compound 1 µM, first compound 0.01 µM): 109%; viability, T/C (second compound 3.16 µM, first compound 0.00316 µM): 118%; viability, T/C (second compound 3.16 µM, first compound 0.01 µM): 142%; viability, T/C [16]: 50.1%; viability, T/C (second compound 10 µM, first compound 0.00316 µM): 82.9%; viability, T/C (second compound 10 µM, first compound 0.01 µM): 87.8%; viability, T/C [17]: 38.3%; viability, T/C [18]: 31.5%; viability, T/C [19]: 5.53%; viability, T/C [20]: 1.46% |
| CCNC(=O)CC1N=C(c2ccc(Cl)cc2)c2cc(OC)ccc2-n2c(C)nnc21 (stereo not given) + COc1cc2nc(C)nc(NC(C)c3cc(N)cc(C(F)(F)F)c3)c2cc1OC1CCOC1 | > 10000 | > 10000 | > 10000 | 2460 | 55.6 | 97.2 | 119 | 104 | 80.3 | 97.6 | 111 | 98.2 | 75.2 | 101 | 109 | 118 | 77.1 | 131 | 97.6 | 114 | viability, T/C (second compound 0.1 µM, first compound 3.16 µM): 73.4%; viability, T/C (second compound 0.1 µM, first compound 10 µM): 69.1%; viability, T/C (second compound 0.316 µM, first compound 3.16 µM): 59.9%; viability, T/C (second compound 0.316 µM, first compound 10 µM): 69.1%; viability, T/C (second compound 1 µM, first compound 3.16 µM): 98.8%; viability, T/C (second compound 1 µM, first compound 10 µM): 70.8%; viability, T/C [16]: 71.7%; viability, T/C (second compound 3.16 µM, first compound 3.16 µM): 41%; viability, T/C (second compound 3.16 µM, first compound 10 µM): 47%; viability, T/C [17]: 77.8%; viability, T/C [18]: 19%; viability, T/C [19]: 17.4%; viability, T/C [20]: 8.42%; viability, T/C (second compound 10 µM, first compound 3.16 µM): 13.1%; viability, T/C (second compound 10 µM, first compound 10 µM): 1.45% |
